In brackets after ≈: the same amount, converted by molar mass.
What was measured:
[1] = test system: PMA-induced oedema in mouse ear; test: Acute contact dermatitis: TPA (PMA)-induced ear oedema in mice; assay type: in vivo; settings: CD1 mice, 500 μg/ear topical in TPDS 30 min before TPA 0.01%, 6 h
Protocol: Groups of 5-6 CD1 mice (18-24 g) were used. • Administration of the compounds
All the macrolide compounds were dissolved in Trans-phase Delivery System (TPDS), a vehicle formed by 10% benzyl alcohol, 40% acetone and 50% isopropanol.
15 microlitres of the compounds (500 μg), dissolved in TPDS, were applied topically to the inner surface of an ear; 30 minutes later, 12 microlitres of a solution of tetradecanoylphorbol acetate (TPA) at a concentration of 0.01% dissolved in acetone were applied to the same area.
Six hours later, the animals were sacrificed by inhalation of CO2. • Evaluation of the results
Two methods were used to evaluate the auricular oedema: • a) Weight of a given portion of auricular pinna. • b) Measurement of the auricular thickness using precision spring callipers.
The degree of oedema was calculated by subtracting the weight or the thickness of the untreated ear from that of the contralateral treated ear. To determine the degree of remission of the oedema, the difference (weight or thickness) of the groups treated with TPA+macrolides was then compared with the groups treated with TPA alone.
The activity of the macrolide compounds was measured by using the modified method of Zunic et al. (1998): MDL (Lysyl) GDP, a non-toxic muramyl dipeptide derivative inhibits cytokine production by activated macrophages and protects mice from phorbol ester- and oxazolone-induced inflammation (J. Invest. Dermatol., 111(1), 77-82).
The data relating to erythromycin and azythromycin concern the treatment with a single dose of 500 μg/ear.

[2] = test system: Staphylococcus aureus ATCC 29213; test: Antibiotic activity, MIC in liquid medium; assay type: cell-based; settings: ATCC29213, Staph. aureus ATCC 29213
Protocol: (§1) The MIC values were determined in liquid earth according to the method described in “Manual of Clinical Microbiology, 7th edition (1999), American Society for Microbiology”.

[3] = test system: Streptococcus pneumoniae ATCC 49619; test: Antibiotic activity, MIC in liquid medium; assay type: cell-based; settings: ATCC49619, Strep. pneum ATTC 49619
Protocol: as §1

[4] = test system: Enterococcus faecalis ATCC 29212; test: Antibiotic activity, MIC or activity at 128 μg/ml; assay type: cell-based; settings: Enter. faecalis ATCC 29212; for MIC: Enterococcus faecalis, ATCC29212
Protocol: as §1

[5] = Water solubility noted at work-up; assay type: physicochemical; settings: remark in the work-up
Protocol: Compound 19 was prepared from intermediate 28 (600 mg, 0.64 mmol) according to the procedures described for compound 1. Given that the product is water-soluble, the crude solid was dissolved in water (50′ ml) and washed with CH2Cl2 (3×20 ml). The solvent was evaporated from the aqueous phase under vacuum and dried to give compound 19 (480 mg, 95% yield) as a crystalline solid. • [M+1]^+ 775

[6] = test system: LPS-induced accumulation of neutrophils in rat lungs; test: LPS-induced pulmonary inflammation in rats (neutrophil count in bronchial fluid wash); assay type: in vivo; settings: single oral dose 100, 40, 10 μmol/kg one hour before LPS 0.4 mg/kg endotracheal, 20 h, erythromycin: single oral dose 130 μmol/kg; for ED50: Rattus norvegicus, Neutrophil, read-out: ED50 (dose inducing 50% reduction in neutrophil count in bronchial fluid wash)
Protocol: B) LPS-Induced Pulmonary Inflammation in Rats • Administration
The rats received endotracheally, via the peroral route, a single dose of 0.4 mg/kg of LPS (E. coli, serotype 026:6). The tracheal instillation was performed under anaesthesia with halothane and, 20 hours after the endotracheal administration of LPS/saline solution, the animals were sacrificed by means of an overdose of urethane. • Washing
The lungs were washed with 4 aliquots of 5 ml each of saline solution with 10 IU ml^−1 heparin. The cell suspension was concentrated by low-speed centrifugation and the cell pellet was suspended. • Counting of the Cells and Differentiation.
The total cell count was performed in a haemocytometer.
The differential counting was performed on cytospin preparations stained with May-Grunwald-Giemsa (Tamaoki J., Tagaya E., Yamawaki I., Sakai, Nagai A., Konno K, 1995. Effect of erythromycin on endotoxin-induced microvascular leakage in the rat trachea and lungs. Am. J. Respir. Crit. Care Med., 151, 1582-8). The rats received the test compounds orally in doses of 100, 40 and 10 μmol/kg as a single administration dose orally one hour before exposure to LPS.
ED50 value is the dose that induced a 50% reduction in the neutrophil count in the bronchial fluid wash.
The data relating to erythromycin refers to an oral treatment with a single dose of 130 μmol/kg.

[7] = test system: Staphylococcus aureus ATCC 6538; test: Antibiotic activity at 128 μg/ml; assay type: cell-based; settings: Staph. aureus ATCC 6538
Protocol: as §1

[8] = test system: Streptococcus pyogenes ATCC 19615; test: Antibiotic activity at 128 μg/ml; assay type: cell-based; settings: Strep. pyogenes ATTC 19615
Protocol: as §1

[9] = method a: weight of a given portion of auricular pinna

SMILES | inhibition in vivo at 500 µg/ear ([1]; method b: auricular thickness by precision spring callipers) [%] | MIC [2] [µg/mL] | MIC [3] [µg/mL] | MIC [4] [µg/mL] | Solubility in water [5] | inhibition in vivo at 500 µg/ear [1, 9] [%] | ED50 [6] [µmol/kg] | Antibiotic activity at 128 μg/ml ([4]; 128 μg/ml) | Antibiotic activity at 128 μg/ml ([7]; 128 μg/ml) | Antibiotic activity at 128 μg/ml ([8]; 128 μg/ml) | ED50 (dose inducing 50% reduction in neutrophil count in bronchial fluid wash) [6] | MIC ([7]; Staphylococcus aureus, ATCC6538) [µg/mL] | MIC ([8]; Streptococcus pyogenes, ATCC19615) [µg/mL]
CC[C@H]1OC(=O)[C@H](C)[C@@H](O)[C@H](C)[C@H](O[C@@H]2O[C@H](C)CC(N(C)C)[C@@H]2O)[C@](C)(O)C[C@@H](C)/C(=N\OCCNCCNCc2nccs2)[C@H](C)[C@H](O)[C@]1(C)O (stereo partly shown) [Compound 19] | 28.2 | > 128 | 16 (≈ 20.7 µM) | > 128 | water-soluble |  |  |  |  |  |  |  | 
CC[C@H]1OC(=O)[C@H](C)[C@@H](O)[C@H](C)[C@@H](O[C@@H]2O[C@H](C)C[C@H](N(C)C(C)=O)[C@H]2O)C(C)(O)C[C@@H](C)[C@H](O)[C@H](C)[C@@H](O)[C@]1(C)O (stereo partly shown) [Compound 1] |  | > 128 | > 128 | > 128 |  | 65.6 | 7 | not active | not active | not active |  |  | 
CC[C@H]1OC(=O)[C@H](C)[C@@H](O[C@H]2C[C@@](C)(OC)[C@@H](O)[C@H](C)O2)[C@H](C)[C@@H](O[C@@H]2O[C@H](C)C[C@H](N(C)C)[C@H]2O)[C@](C)(O)C[C@@H](C)C(=O)[C@H](C)[C@@H](O)[C@]1(C)O [Erythromycin, reference compound] |  | 0.25 (≈ 0.341 µM) | 0.12 (≈ 0.164 µM) | 1 (≈ 1.36 µM) |  | 42 |  |  |  |  | Not active | 0.25 (≈ 0.341 µM) | 0.12 (≈ 0.164 µM)
CC[C@H]1OC(=O)[C@H](C)[C@@H](O)[C@H](C)[C@@H](O[C@@H]2O[C@H](C)CC[C@H]2O)C(C)(O)C[C@@H](C)/C(=N\O)[C@H](C)[C@@H](O)[C@]1(C)O (stereo partly shown) [Compound 14] |  |  |  |  |  | 71.5 | 15 |  |  |  |  |  | 

Source: patent US7488811B2, “Macrolide compounds endowed with antiinflammatory activity” (Zambon Group S.p.A., priority 2002, dated 2009)
